Experimental data from publication PMC3855387, “AMPK Activation through Mitochondrial Regulation Results in Increased Substrate Oxidation and Improved Metabolic Parameters in Models of Diabetes” (PLoS ONE, 2013).
pIC50: −log10 of the molar value.

Columns and labels:
[1] = target: T1, respiratory complex I (mitochondrial complex I) (Mus musculus, UniProt P03888+Q91WD5+Q9DC70); assay: NADH oxidation (A340) in mouse liver mitochondrial lysate; succinate rescue of respiration in isolated mitochondria; assay type: biochemical
T1 construct: gene Ndufs2; native complex in mouse liver mitochondrial lysate

[2] = target: T1, respiratory complex I (mitochondrial complex I); assay: NADH oxidation (A340) in mouse liver mitochondrial lysate; assay type: biochemical

SMILES | pIC50 [1] | pIC50 [2]
COc1ccc(C(=O)C2CCN(C(=O)c3ccc(C(=O)NC4CCN(Cc5ccc(C#N)cc5)CC4)cn3)CC2)cc1 [R419, N-(1-(4-cyanobenzyl)piperidin-4-yl)-6-(4-(4-methoxybenzoyl)piperidine-1-carbonyl)nicotinamide] | 7.09 | 
CN(C)C(=N)N=C(N)N [metformin] |  | 1.57
